# Target: T1, human ferroportin (Homo sapiens, UniProt Q9NP59)
# T1 construct: luciferase reporter (read with the Nano-Glo Luciferase Assay System); expressed in transfected cells; host or cells: CHO cells, stably transfected, expression induced with doxycycline
# T1 sequence (Q9NP59 1-571): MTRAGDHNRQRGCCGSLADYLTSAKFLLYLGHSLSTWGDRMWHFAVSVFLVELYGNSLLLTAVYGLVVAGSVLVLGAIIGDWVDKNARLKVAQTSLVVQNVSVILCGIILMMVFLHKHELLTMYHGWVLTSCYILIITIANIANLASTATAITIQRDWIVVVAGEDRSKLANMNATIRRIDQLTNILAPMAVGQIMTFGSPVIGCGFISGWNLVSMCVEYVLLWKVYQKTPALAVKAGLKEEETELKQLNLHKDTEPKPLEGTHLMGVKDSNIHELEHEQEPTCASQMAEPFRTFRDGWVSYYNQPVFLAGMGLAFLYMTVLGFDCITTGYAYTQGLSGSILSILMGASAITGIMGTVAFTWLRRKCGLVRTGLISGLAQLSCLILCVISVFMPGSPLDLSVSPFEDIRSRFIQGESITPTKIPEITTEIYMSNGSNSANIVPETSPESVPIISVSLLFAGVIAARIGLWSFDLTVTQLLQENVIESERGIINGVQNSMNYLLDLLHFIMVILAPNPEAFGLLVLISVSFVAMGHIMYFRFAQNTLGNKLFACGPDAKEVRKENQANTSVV
# Test: Biological in-vitro ferroportin internalization assay (luciferase reporter)
# Format: cell-based
# Conditions: average pEC50; stably-transfected CHO cell line expressing human ferroportin tagged to a luciferase reporter; 6 h incubation with test compound
# How it was run: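 Stably transfected CHO cells expressing luciferase-tagged human ferroportin, plated 24 h with ferric ammonium citrate and induced with doxycycline for 24 h. Compounds incubated 6 h, then luciferase activity measured by Nano-Glo; average pEC50 reported.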
row,SMILES,pEC50
1,"c1nc(-c2nc3c(c(N4CCCCCC4)n2)CCC3)cs1 [Compound 94, 1-[2-(1,3-thiazol-4-yl)-5H,6H,7H-cyclopenta[d]pyrimidin-4-yl]azepane]",6.3
2,"COc1ccnc(-c2nc3c(c(N(C)Cc4nc(Cc5ccccc5)co4)n2)CCC3)c1 [Compound 379, N-[(4-benzyl-1,3-oxazol-2-yl)methyl]-2-(4-methoxypyridin-2-yl)-N-methyl-5H,6H,7H-cyclopenta[d]pyrimidin-4-aminemide]",7.2
3,"COc1ccnc(-c2nc3c(c(N(C)[C@H]4CCN(c5ccccc5)C4=O)n2)CCC3)c1 [Compound 205, (3S)-3-{[2-(4-methoxypyridin-2-yl)-5H,6H,7H-cyclopenta[d]pyrimidin-4-yl](methyl)amino}-1-phenylpyrrolidin-2-one]",7.5
4,"CN(CC(=O)N1CCCC1)c1nc(-c2cc(OCCO)ccn2)nc2c1CCC2 [Compound 354, 2-({2-[4-(2-hydroxyethoxy)pyridin-2-yl]-5H,6H,7H-cyclopenta[d]pyrimidin-4-yl}(methyl)amino)-1-(pyrrolidin-1-yl)ethan-1-one]",7.7
5,"CN(CC(=O)N1CCCCCC1)c1nc(-c2cc(OCCO)ccn2)nc2c1CCC2 [Compound 357, 1-(azepan-1-yl)-2-({2-[4-(2-hydroxyethoxy)pyridin-2-yl]-5H,6H,7H-cyclopenta[d]pyrimidin-4-yl}(methyl)amino)ethan-1-one]",7.7
6,"CN(CC(=O)Nc1ccc(OC(F)(F)F)nc1)c1nc(-c2cc3ccccc3cn2)nc2c1CCC2 [Compound 234, 2-{[2-(isoquinolin-3-yl)-5H,6H,7H-cyclopenta[d]pyrimidin-4-yl](methyl)amino}-N-[6-(trifluoromethoxy)pyridin-3-yl]acetamide]",6.4
7,"CN(CC(=O)Nc1cccc(F)c1)c1nc(-c2cc(O[C@H]3C[C@@H](O)C3)ccn2)nc2c1CCC2 [Compound 345, N-(3-fluorophenyl)-2-[methyl(2-{4-[(1s,3s)-3-hydroxycyclobutoxy]pyridin-2-yl}-5H,6H,7H-cyclopenta[d]pyrimidin-4-yl)amino]acetamide]",6.7
8,"Cc1ccc(NC(=O)CN(C)c2nc(-c3cc(OCCO)ccn3)nc3c2C(C)(C)CC3)cn1 [Compound 331, 2-({2-[4-(2-hydroxyethoxy)pyridin-2-yl]-5,5-dimethyl-5H,6H,7H-cyclopenta[d]pyrimidin-4-yl}(methyl)amino)-N-(6-methylpyridin-3-yl)acetamide]",8.3
9,"CN(CC(=O)NC(C)(C)C)c1nc(-c2cc(OCCN3CCCC3)ccn2)nc2c1CCC2 [Compound 401, N-tert-butyl-2-[methyl(2-{4-[2-(pyrrolidin-1-yl)ethoxy]pyridin-2-yl}-5H,6H,7H-cyclopenta[d]pyrimidin-4-yl)amino]acetamide]",8.3
10,"COc1ccc(NC(=O)[C@@H](C)N(C)c2nc(-c3cc4ccccc4cn3)nc3c2CCC3)cn1 [Compound 250, (2R)-2-{[2-(isoquinolin-3-yl)-5H,6H,7H-cyclopenta[d]pyrimidin-4-yl](methyl)amino}-N-(6-methoxypyridin-3-yl)propanamide]",7.4
11,"CN(CC(=O)NC1CCOCC1)c1nc(-c2cc(OCCO)ccn2)nc2c1CCC2 [Compound 140, 2-({2-[4-(2-hydroxyethoxy)pyridin-2-yl]-5H,6H,7H-cyclopenta[d]pyrimidin-4-yl}(methyl)amino)-N-(oxan-4-yl)acetamide]",7

# Second part, the compound after the results:
row,pEC50,SMILES
1,7.1,"COc1ccc(NC(=O)CN(C)c2nc(-c3cc4cn[nH]c4cn3)nc3c2CCC3)cn1 [Compound 219, N-(6-methoxypyridin-3-yl)-2-[methyl(2-{1H-pyrazolo[3,4-c]pyridin-5-yl}-5H,6H,7H-cyclopenta[d]pyrimidin-4-yl)amino]acetamide]"
2,7,"CN(CC(=O)Nc1ccccc1)c1nc(-c2ccccn2)nc2c1CCC2 [Compound 77, 2-{methyl[2-(pyridin-2-yl)-5H,6H,7H-cyclopenta[d]pyrimidin-4-yl]amino}-N-phenylacetamide]"
3,7.8,"COc1ccc(NC(=O)CN(C)c2nc(-c3cn(C)cn3)nc3c2CCC3)nc1 [Compound 190, N-(5-methoxypyridin-2-yl)-2-{methyl[2-(1-methyl-1H-imidazol-4-yl)-5H,6H,7H-cyclopenta[d]pyrimidin-4-yl]amino}acetamide]"
4,7.8,"COc1ccc(NC(=O)CN(C)c2nc(-c3cc(OCCO)ccn3)nc3c2CCC3)nn1 [Compound 285, 2-({2-[4-(2-hydroxyethoxy)pyridin-2-yl]-5H,6H,7H-cyclopenta[d]pyrimidin-4-yl}(methyl)amino)-N-(6-methoxypyridazin-3-yl)acetamide]"
5,7.6,"CN(CC(=O)Nc1cnn(C)c1)c1nc(-c2cc(OCCO)ccn2)nc2c1CCC2 [Compound 296, 2-({2-[4-(2-hydroxyethoxy)pyridin-2-yl]-5H,6H,7H-cyclopenta[d]pyrimidin-4-yl}(methyl)amino)-N-(1-methyl-1H-pyrazol-4-yl)acetamide]"
6,7.9,"COc1ccc(NC(=O)CN(C)c2nc(-c3cc(OC4COC4)ccn3)nc3c2CCC3)cc1 [Compound 327, N-(4-methoxyphenyl)-2-[methyl({2-[4-(oxetan-3-yloxy)pyridin-2-yl]-5H,6H,7H-cyclopenta[d]pyrimidin-4-yl})amino]acetamide]"
7,8.3,"CCC(C)(CC)NC(=O)CN(C)c1nc(-c2cc(OCCO)ccn2)nc2c1CCC2 [Compound 392, 2-({2-[4-(2-hydroxyethoxy)pyridin-2-yl]-5H,6H,7H-cyclopenta[d]pyrimidin-4-yl}(methyl)amino)-N-(3-methylpentan-3-yl)acetamide]"
8,7.4,"CN(CC(=O)NC1CCCCC1)c1nc(-c2cn(C)cn2)nc2c1CCC2 [Compound 142, N-cyclohexyl-2-{methyl[2-(1-methyl-1H-imidazol-4-yl)-5H,6H,7H-cyclopenta[d]pyrimidin-4-yl]amino}acetamide]"
9,7.1,"CN(CC(=O)Nc1ccn(C)n1)c1nc(-c2cc3ccccc3cn2)nc2c1CCC2 [Compound 237, 2-{[2-(isoquinolin-3-yl)-5H,6H,7H-cyclopenta[d]pyrimidin-4-yl](methyl)amino}-N-(1-methyl-1H-pyrazol-3-yl)acetamide]"
10,7.2,"COc1ccnc(-c2nc3c(c(N(C)CC(=O)Nc4ccn(C)c(=O)c4)n2)CCC3)c1 [Compound 287, 2-{[2-(4-methoxypyridin-2-yl)-5H,6H,7H-cyclopenta[d]pyrimidin-4-yl](methyl)amino}-N-(1-methyl-2-oxo-1,2-dihydropyridin-4-yl)acetamide]"
11,7.6,"CNCCOc1ccnc(-c2nc3c(c(N(C)CC(=O)NC(C)(C)C)n2)CCC3)c1 [Compound 419, N-tert-butyl-2-[methyl(2-{4-[2-(methylamino)ethoxy]pyridin-2-yl}-5H,6H,7H-cyclopenta[d]pyrimidin-4-yl)amino]acetamide]"
12,7.3,"CN(CC(=O)NC(C)(C)C)c1nc(-c2cc(CO)ccn2)nc2c1CCC2 [Compound 41, N-tert-butyl-2-({2-[4-(hydroxymethyl)pyridin-2-yl]-5H,6H,7H-cyclopenta[d]pyrimidin-4-yl}(methyl)amino)acetamide]"
13,8.2,"C[C@H](O)COc1ccnc(-c2nc3c(c(N(C)CC(=O)NC(C)(C)C)n2)CCC3)c1 [Compound 370, N-tert-butyl-2-[(2-{4-[(2S)-2-hydroxypropoxy]pyridin-2-yl}-5H,6H,7H-cyclopenta[d]pyrimidin-4-yl)(methyl)amino]acetamide]"
14,7.8,"COc1ccnc(-c2nc3c(c(N(C)CC(=O)N[C@@H]4CCC[C@@H]4O)n2)CCC3)c1 (relative stereo) [Compound 170, N-[(1R,2S)-2-hydroxycyclopentyl]-2-{[2-(4-methoxypyridin-2-yl)-5H,6H,7H-cyclopenta[d]pyrimidin-4-yl](methyl)amino}acetamide]"
15,7.4,"CN(CC(=O)Nc1cn(C)cn1)c1nc(-c2cc3ccccc3cn2)nc2c1CCC2 [Compound 236, 2-{[2-(isoquinolin-3-yl)-5H,6H,7H-cyclopenta[d]pyrimidin-4-yl](methyl)amino}-N-(1-methyl-1H-imidazol-4-yl)acetamide]"
16,7.8,"CN(CC(=O)NC12CC(C1)C2)c1nc(-c2cc(OCC(C)(C)O)ccn2)nc2c1CCC2 [Compound 383, N-{bicyclo[1.1.1]pentan-1-yl}-2-({2-[4-(2-hydroxy-2-methylpropoxy)pyridin-2-yl]-5H,6H,7H-cyclopenta[d]pyrimidin-4-yl}(methyl)amino)acetamide]"

# Reference: patent US11746100B2 (GLOBAL BLOOD THERAPEUTICS, INC., priority 2020, dated 2023)
